Data on 4 molecules can be found in article PMC3914206.

Holding throughout (type): binding
What all share (parameters): KINOMEscan: ABL1(F317L)-phosphorylated / KINOMEscan: ABL1(H396P)-nonphosphorylated / KINOMEscan: ABL1(H396P)-phosphorylated / KINOMEscan: ABL1(M351T)-phosphorylated / KINOMEscan: ABL1(T315I)-phosphorylated / KINOMEscan: ABL1-nonphosphorylated / KINOMEscan: ABL1-phosphorylated / KINOMEscan: ACVR2A / KINOMEscan: ACVR2B / KINOMEscan: ADCK3 / KINOMEscan: ADCK4 / KINOMEscan: AKT1 / KINOMEscan: AKT3 / KINOMEscan: ALK / KINOMEscan: ARK5 / KINOMEscan: AURKA / KINOMEscan: AURKC / KINOMEscan: BIKE / KINOMEscan: BMPR1A / KINOMEscan: BMPR1B / KINOMEscan: BMX / KINOMEscan: BRK / KINOMEscan: BRSK1 / KINOMEscan: BRSK2 / KINOMEscan: CAMK1 / KINOMEscan: CAMK1D / KINOMEscan: CAMK1G / KINOMEscan: CAMK2A / KINOMEscan: CAMK2B / KINOMEscan: AAK1 / KINOMEscan: CAMK2D / KINOMEscan: CAMK2G / KINOMEscan: ABL1(F317I)-nonphosphorylated / KINOMEscan: ABL1(F317I)-phosphorylated / KINOMEscan: ABL1(F317L)-nonphosphorylated: unit: % Ctrl
Holding throughout (settings): Compound Concentration 10 µM

The target of assay [1] is T1, panel of 442 kinases (Homo sapiens, UniProt P00519).
T1 construct: purchased KINOMEscan
The source says: (§1) We assessed the selectivity of members of this scaffold using the KINOMEscan methodology across a near comprehensive panel of 442 kinases [[18,27]].

In assay [2] the target is T2, panel of 442 kinases (Homo sapiens, UniProt P41743).
T2 construct: purchased KINOMEscan
T2 sequence (P41743 1-596): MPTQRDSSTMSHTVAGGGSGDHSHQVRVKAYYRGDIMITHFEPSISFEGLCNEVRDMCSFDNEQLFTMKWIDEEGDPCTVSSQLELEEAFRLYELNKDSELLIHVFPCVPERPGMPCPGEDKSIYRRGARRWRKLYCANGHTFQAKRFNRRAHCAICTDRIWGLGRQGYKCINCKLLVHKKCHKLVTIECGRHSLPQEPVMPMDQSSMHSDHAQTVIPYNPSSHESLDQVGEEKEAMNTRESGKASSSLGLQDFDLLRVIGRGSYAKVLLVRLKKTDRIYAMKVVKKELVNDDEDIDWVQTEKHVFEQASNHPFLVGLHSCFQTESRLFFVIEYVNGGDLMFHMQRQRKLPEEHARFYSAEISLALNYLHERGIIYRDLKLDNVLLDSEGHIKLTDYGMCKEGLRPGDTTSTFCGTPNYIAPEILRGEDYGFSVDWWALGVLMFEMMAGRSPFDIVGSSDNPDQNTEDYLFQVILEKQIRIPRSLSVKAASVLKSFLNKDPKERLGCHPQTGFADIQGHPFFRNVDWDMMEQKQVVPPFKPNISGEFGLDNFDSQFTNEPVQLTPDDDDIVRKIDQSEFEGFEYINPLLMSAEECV
Source text: as §1

For assay [3], the target named is T3, panel of 442 kinases (Plasmodium falciparum, UniProt P61075).
T3 construct: purchased KINOMEscan
Source text: as §1

T3 sequence (P61075 whole entry): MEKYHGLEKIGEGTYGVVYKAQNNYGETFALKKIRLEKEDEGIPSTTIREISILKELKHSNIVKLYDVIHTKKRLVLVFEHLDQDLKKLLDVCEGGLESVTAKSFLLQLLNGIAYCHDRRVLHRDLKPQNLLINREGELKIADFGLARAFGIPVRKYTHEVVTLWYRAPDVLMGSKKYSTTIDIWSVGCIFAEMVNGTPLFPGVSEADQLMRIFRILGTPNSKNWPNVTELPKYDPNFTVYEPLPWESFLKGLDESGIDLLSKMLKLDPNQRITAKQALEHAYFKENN
T1 sequence (P00519 whole entry): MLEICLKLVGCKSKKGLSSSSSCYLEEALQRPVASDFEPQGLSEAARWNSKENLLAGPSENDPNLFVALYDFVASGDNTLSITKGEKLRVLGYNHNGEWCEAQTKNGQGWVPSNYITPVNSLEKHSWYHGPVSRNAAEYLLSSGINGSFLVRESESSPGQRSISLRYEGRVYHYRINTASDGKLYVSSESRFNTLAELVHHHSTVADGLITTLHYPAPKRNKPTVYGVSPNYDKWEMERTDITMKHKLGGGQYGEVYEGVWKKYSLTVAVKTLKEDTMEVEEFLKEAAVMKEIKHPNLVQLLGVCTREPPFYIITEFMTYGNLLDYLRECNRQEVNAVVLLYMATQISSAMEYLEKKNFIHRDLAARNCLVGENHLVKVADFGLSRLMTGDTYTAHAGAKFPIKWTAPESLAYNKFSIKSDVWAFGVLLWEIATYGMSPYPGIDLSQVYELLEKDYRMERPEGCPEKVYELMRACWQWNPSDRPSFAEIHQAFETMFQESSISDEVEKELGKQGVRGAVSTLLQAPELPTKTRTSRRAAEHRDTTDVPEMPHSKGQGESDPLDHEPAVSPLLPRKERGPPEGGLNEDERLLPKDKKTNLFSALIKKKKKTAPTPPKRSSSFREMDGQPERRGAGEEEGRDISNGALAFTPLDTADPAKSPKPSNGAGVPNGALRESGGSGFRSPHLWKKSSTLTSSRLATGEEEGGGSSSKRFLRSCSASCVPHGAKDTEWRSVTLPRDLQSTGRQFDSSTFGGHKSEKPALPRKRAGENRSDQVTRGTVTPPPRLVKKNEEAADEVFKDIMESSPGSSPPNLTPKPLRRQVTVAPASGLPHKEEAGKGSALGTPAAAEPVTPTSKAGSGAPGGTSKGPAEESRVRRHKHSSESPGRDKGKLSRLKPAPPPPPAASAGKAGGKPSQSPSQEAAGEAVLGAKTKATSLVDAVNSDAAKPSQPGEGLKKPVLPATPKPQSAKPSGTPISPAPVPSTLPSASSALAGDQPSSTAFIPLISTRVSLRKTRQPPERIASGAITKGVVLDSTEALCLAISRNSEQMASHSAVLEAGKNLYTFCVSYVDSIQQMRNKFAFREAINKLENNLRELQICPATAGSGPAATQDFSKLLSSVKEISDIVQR

Take `COc1cc(C(=O)N2CCC(N3CCN(C)CC3)CC2)ccc1Nc1ncc2c(n1)N(C1CCCC1)c1ccccc1C(=O)N2C` [Compound 25, 11-cyclopentyl-2-((2-methoxy-4-(4-(4-methylpiperazin-1-yl)piperidine-1-carbonyl)phenyl)amino)-5-methyl-5H-benzo[e]pyrimido[5,4-b][1,4]diazepin-6(11H)-one]: at panel of 442 kinases [1], the “KINOMEscan: ABL1-nonphosphorylated” value stood at 90 and the “KINOMEscan: ABL1-phosphorylated” value worked out at 100. The “KINOMEscan: PRKCI” value on panel of 442 kinases [2] worked out at 100. Moreover, on panel of 442 kinases [3], the “KINOMEscan: PFPK5(P.falciparum)” value was 85.

Consider `COc1cc(C(=O)N2CCC(N3CCN(C)CC3)CC2)ccc1Nc1ncc2c(n1)N1CCc3cccc(c31)C(=O)N2C` [Compound 24], for which, on panel of 442 kinases [1], the “KINOMEscan: ABL1-nonphosphorylated” value is 60 and the “KINOMEscan: ABL1-phosphorylated” value is 81. In addition, on panel of 442 kinases [3], the “KINOMEscan: PFPK5(P.falciparum)” value was 92.

Turning to `COc1cc(C(=O)N2CCC(N3CCN(C)CC3)CC2)ccc1Nc1ncc2c(n1)N(C)c1ccccc1C(=O)N2C` [15 (LRRK2-IN-1)], at panel of 442 kinases [1], the “KINOMEscan: ABL1-nonphosphorylated” value is reported as 100 and the “KINOMEscan: ABL1-phosphorylated” value turned out to be 82. The “KINOMEscan: PRKCI” value on panel of 442 kinases [2] is 100. Also, the “KINOMEscan: PFPK5(P.falciparum)” value on panel of 442 kinases [3] came to 100.

Turning to `CCOc1cc(C(=O)N2CCC(N3CCN(C)CC3)CC2)ccc1Nc1ncc2c(n1)N(C1CCCC1)c1ccccc1C(=O)N2C` [Compound 26], at panel of 442 kinases [1], the “KINOMEscan: ABL1-nonphosphorylated” value worked out at 96 and the “KINOMEscan: ABL1-phosphorylated” value is 100. The “KINOMEscan: PRKCI” value on panel of 442 kinases [2] worked out at 95. In addition, the “KINOMEscan: PFPK5(P.falciparum)” value on panel of 442 kinases [3] amounted to 100.
